Experimental data taken from patent US20210187105A1, “COMBINATION THERAPY OF ANTI-MIF ANTIBODIES AND GLUCOCORTICOIDS” (Baxalta Incorporated, priority 2012, published 2021).

Columns and labels:
[1] = tested on: Contact hypersensitivity (CHS) response to 2,4-dinitrofluorobenzene (DNFB) in C57BL/6 mice; assay: Contact hypersensitivity (CHS) response to DNFB, ear swelling; format: in vivo, mouse; settings: topical
Procedure: The Contact hypersensitivity (CHS) response to 2,4-dinitrofluorobenzene (DNFB) was determined using a modification of an earlier model described (see Ludwig, et al., 2010, Am J Pathol 176, 1339-1345). C57BL/6 mice were sensitized by treating the shaved mouse back skin with 75 μl of DNFB (Sigma, St. Louis, Mo.) solution (0.5% in acetone/olive oil, 4/1). […] the right ears of the mice were challenged with 20 μl 0.3% DNFB to cause a local inflammatory response. The vehicle (acetone/olive) oil was applied to the left ears as a control. The swelling response to DNFB, specified as the difference between the right and left ears, was measured 24 h after challenge using a micrometer (Mitutoyo Co., Tokyo, Japan). 8 mice were used per group.

[2] = tested on: immune mediated-nephrotoxic nephritis (NTN) in Wistar Kyoto (WKY) rats; assay: Animal model for crescentic glomerulonephritis (nephrotoxic nephritis); format: in vivo, rat
Excerpt: This model is recognized in the art as predictable to show the effects of the invention. It is suitable to show the effects of the combination therapy over the complete range of diseases which can be subsumed under the above definition of “MIF related diseases” particularly, this model is suitable for the following diseases: Lupus nephritis, anti-GBM nephritis, ANCA nephritis, IgA nephropathy. Dexamethasone is recognized in the art as predictive for a respective glucocorticoid in the treatment of a human. […] This model has a rapid onset of disease with macrophage infiltration, fibrin deposition and tissue destruction 12. NTN is induced in male WKY rats by single intravenous injection of 0.1 ml rabbit anti-rat glomerular basement membrane serum (day 0). mAb and Dexamethasone is injected intraperitoneally at time points and dosages described below. 24 hour urine samples are collected using metabolic cages before induction of glomerulonephritis and at various time intervals after induction of nephritis for quantification of proteinuria. Sections of renal tissues are frozen for subsequent analysis by immunohistology. Morphology of renal injury is assessed in haematoxylin/eosin (H&E) and periodic acid-Schiff (PAS) stained renal tissue sections. Macrophage is detected by immunoperoxidase technique and using the monoclonal mouse antibody ED1 (Serotec, U C). The animal model was described in detail (Tam F W K, Smith J, Morel D, Karkar A M, Thompson E M, Cook H T, Pusey C D: Development of scarring and renal failure in a rat model of crescentic glomerulonephritis. Nephrol Dial Transplant 14:1658-1666, 1999).

[3] = single intraperitoneal injection of 0.25 mg/kg, 4 days after induction, day 8

For `C[C@]12CCC(=O)C=C1CC[C@@H]1[C@@H]2[C@@H](O)C[C@@]2(C)[C@H]1CC[C@]2(O)C(=O)CO` [hydrocortisone], the “anti-inflammatory effects, ear thickness” value ([1]; 1% in DAC base cream ointment, without antibody) was “sub-optimal anti-inflammatory effects” and the ear swelling ([1]; suboptimal dose 1% in DAC base cream, in combination with 10 mg/kg isotype control antibody) was “did not reduce ear swelling”.
With `C[C@@H]1C[C@H]2[C@@H]3CCC4=CC(=O)C=C[C@]4(C)[C@@]3(F)[C@@H](O)C[C@]2(C)[C@@]1(O)C(=O)CO` [Dexamethasone, reference compound] the suboptimal dexamethasone concentration ([2]; dose finding) was 0.025 mg/kg, the “reduction of crescent counts” value [2, 3] was “approximately 25%” and the “reduction of glomerular macrophage infiltration” value [2, 3] was “approximately 53%”. For the same compound, the reduction of proteinuria ([2]; single intraperitoneal injection of 0.25 mg/kg, 4 days after induction, urine day 7 to day 8) was “approximately 50%”.
